ChEMBL document CHEMBL1149328, “Estrogen receptor ligands. II. Discovery of benzoxathiins as potent, selective estrogen receptor alpha modulators” (J Med Chem, 2004)

Tests used:
Estrogen receptor beta [1] = biological target: T1, Estrogen receptor beta (Homo sapiens, UniProt Q92731)
Description: Binding affinity towards human recombinant Estrogen receptor beta was determined

Estrogen receptor [2] = biological target: T2, Estrogen receptor (Homo sapiens, UniProt P03372)
T2 sequence (P03372 whole entry): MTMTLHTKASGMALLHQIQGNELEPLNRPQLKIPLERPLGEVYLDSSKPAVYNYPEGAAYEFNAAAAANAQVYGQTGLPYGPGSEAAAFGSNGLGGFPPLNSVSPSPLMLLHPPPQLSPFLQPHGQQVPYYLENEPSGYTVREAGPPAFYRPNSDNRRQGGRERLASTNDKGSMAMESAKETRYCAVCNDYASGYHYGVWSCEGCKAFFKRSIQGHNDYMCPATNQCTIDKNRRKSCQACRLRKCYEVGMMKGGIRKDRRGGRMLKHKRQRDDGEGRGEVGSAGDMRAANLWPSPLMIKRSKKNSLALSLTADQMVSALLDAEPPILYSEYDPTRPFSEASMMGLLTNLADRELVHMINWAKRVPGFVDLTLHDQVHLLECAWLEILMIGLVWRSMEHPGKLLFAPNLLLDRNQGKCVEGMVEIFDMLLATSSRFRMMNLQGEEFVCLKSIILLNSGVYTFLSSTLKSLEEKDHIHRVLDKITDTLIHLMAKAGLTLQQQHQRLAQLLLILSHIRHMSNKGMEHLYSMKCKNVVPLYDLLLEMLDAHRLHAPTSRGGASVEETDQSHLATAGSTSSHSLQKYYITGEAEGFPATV
Description: Binding affinity towards human recombinant Estrogen receptor alpha was determined

[3] = biological target: T3, Estrogen receptor (Rattus norvegicus) (UniProt P06211+Q62986); settings: at 1 mg/kg
Description: (§1) Anti-uterotrophic activity in rats after 1 mg/kg subcutaneous dose for 3 days with estradiol

[4] = biological target: T3, Estrogen receptor (Rattus norvegicus); settings: at 1 mg/kg; remark: listed apart in the source
Description: Anti-uterotrophic activity in rats after 1 mg/kg subcutaneous dose for 3 days without estradiol

Estrogen receptor [5] = biological target: T2, Estrogen receptor; assay: In vitro binding affinity for Estrogen receptor alpha in HEK293 cells; assay type: cell-based
Estrogen receptor beta [6] = biological target: T1, Estrogen receptor beta; assay: biochemical
Description: In vitro binding affinity for Estrogen receptor beta in HEK293 cells

[7] = biological target: T3, Estrogen receptor (Rattus norvegicus); settings: Uterus, at 1 mg/kg
Description: Uterotrophic activity in rats after 1 mg/kg peroral dose for 3 days without estradiol

[8] = biological target: T3, Estrogen receptor (Rattus norvegicus); settings: at 1 mg/kg; remark: listed apart in the source
Description: as §1

[9] = biological target: T3, Estrogen receptor (Rattus norvegicus); settings: Uterus, at 0.3 mg/kg
Description: Uterotrophic activity in rats after 0.3 mg/kg peroral dose for 3 days with estradiol

T1 sequence (Q92731 whole entry): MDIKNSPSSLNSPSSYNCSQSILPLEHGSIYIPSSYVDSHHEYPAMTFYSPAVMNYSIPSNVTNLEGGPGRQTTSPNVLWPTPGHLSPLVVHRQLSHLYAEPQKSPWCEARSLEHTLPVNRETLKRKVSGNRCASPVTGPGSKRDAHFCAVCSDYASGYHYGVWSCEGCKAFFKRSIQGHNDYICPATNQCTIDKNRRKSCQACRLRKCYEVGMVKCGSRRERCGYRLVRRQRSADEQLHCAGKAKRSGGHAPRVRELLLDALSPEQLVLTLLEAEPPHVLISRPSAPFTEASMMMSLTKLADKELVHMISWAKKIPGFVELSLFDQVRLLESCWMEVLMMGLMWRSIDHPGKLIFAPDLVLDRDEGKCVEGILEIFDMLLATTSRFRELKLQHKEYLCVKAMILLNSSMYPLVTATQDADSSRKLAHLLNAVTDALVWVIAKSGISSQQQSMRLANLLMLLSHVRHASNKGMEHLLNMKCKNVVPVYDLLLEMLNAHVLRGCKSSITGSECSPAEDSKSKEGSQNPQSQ

Row | SMILES | IC50 (Estrogen receptor beta [1]) | IC50 (Estrogen receptor [2]) | inhibition [3] | also measured
1 | [O-][S+]1c2cc(O)ccc2O[C@H](c2ccc(OCCN3CCCCC3)cc2)[C@@H]1c1ccc(O)cc1 (stereo partly specified) | > 100000 nM | > 100000 nM |  | 
2 | Oc1ccc([C@@H]2Sc3ccc(O)cc3O[C@@H]2c2ccc(OCCN3CCCCC3)cc2)cc1 | 45 nM | 1.6 nM |  | 
3 | Oc1ccc([C@@H]2Sc3cc(O)ccc3O[C@@H]2c2ccc(OCCN3CCCCC3)cc2)cc1 (stereo in doubt; 4-L) |  |  | 16% | 
4 | Oc1ccc([C@@H]2Sc3cc(O)ccc3O[C@H]2c2ccc(OCCN3CCCCC3)cc2)cc1 (racemic) |  |  | 77% | Control [4]: 5%
5 | Oc1ccc([C@@H]2Sc3ccccc3O[C@@H]2c2ccc(OCCN3CCCCC3)cc2)cc1 | 70 nM | 10 nM |  | 
6 | O=S1(=O)c2cc(O)ccc2O[C@H](c2ccc(OCCN3CCCCC3)cc2)[C@@H]1c1ccc(O)cc1 | 5950 nM | 1090 nM |  | 
7 | O=C1c2ccc(O)cc2O[C@H](c2ccc(OCCN3CCCCC3)cc2)[C@@H]1c1ccc(O)cc1 | 2730 nM | 39 nM |  | 
8 | Oc1ccc(C2=C(c3ccc(OCCN4CCCCC4)cc3)Oc3ccc(O)cc3S2)cc1 | 5.1 nM | 1.6 nM | 55% | IC50 (Estrogen receptor [5]): 5.1 nM; Control [4]: 45%; IC50 (Estrogen receptor beta [6]): 159 nM
9 | Oc1ccc([C@@H]2Sc3cc(O)ccc3O[C@@H]2c2ccc(OCCN3CCCCC3)cc2)cc1 (racemic) |  |  | 18% | Control [4]: 20%
10 | Oc1ccc2c(c1)S[C@@H](c1ccccc1)[C@@H](c1ccc(OCCN3CCCCC3)cc1)O2 | 183 nM | 6.2 nM |  | 
11 | Oc1ccc([C@H]2Sc3cc(O)ccc3O[C@H]2c2ccc(OCCN3CCCCC3)cc2)cc1 |  |  |  | Control [7]: 9%; inhibition [8]: 0.4%; inhibition [9]: 11.4%
